# Assays:
# [1] = in culture; cited from earlier work
# Pmel T cells [2] = details: activated in presence of H2S donor
# Procedure: (§1) Oxygen consumption rate (OCR) and extracellular acidification rate (ECAR) were determined using the Seahorse Xfe96 analyzer (Agilent Technologies, Santa Clara, CA). Briefly, T cells (0.5×10^6/well) were plated on a Cell-Tak coated Seahorse culture plate for 30 min. OCR, a measure of OXPHOS, was analyzed under basal condition, or in response to 1.0 μM oligomycin, 1.0 μM fluoro-carbonyl cyanide phenylhydrazone (FCCP) and 2 μM rotenone, plus 100 nM antimycin A. ECAR, a measure of glycolysis, was measured under basal conditions and in response to glucose (5.5 mM), Oligomycin (1.0 μM), and 2-deoxyglucose (2-DG) (100 mM). All reagents were purchased from Sigma-Aldrich, St. Louis, MO.
# Golgi^lo T cells = details: GYY4137 (0.5 mM) 3 days, stimulated with gp100
# Source text: Cells were subsequently stimulated with gp100 antigen and analyzed for production of cytokines by FACS (n=4). (FIG. 25B) Quantification of FACS MFI values for MitoTracker Deep Red FM stain in Golgi^hi vs. Golgi^lo cells (n=4 independent samples). (FIG. 25C) Real-time flux in OCR measured using Seahorse metabolic flux analysis. Shown is the quantification of mean oxygen consumption rate (OCR) throughout the assay, spare respiratory capacity (SRC), maximal respiration, and basal respiration (n=experimental replicates representative of 3 separate experiments). (FIG. 25D) FACS sorted Golgi^hi vs. Golgi^lo melanoma epitope gp100 TCR reactive CD8+ T cells from Pmel mouse were analyzed using transmission electron microscopy (TEM) to evaluate mitochondria and Golgi morphology. (FIG. 25E-25H) Global metabolomics analysis was performed on Golgi^hi vs. Golgi^lo Pmel T cells and analyzed for PCA (FIG. 25E) and pathway enrichment (FIG. 25F). […] (FIGS. 25M and 25N) Human CD19 CAR-T cells were expanded and sorted into Golgi^hi and Golgi^lo based on BODIPY TR Ceramide dye fluorescence and were co-cultured at a 1:1 ratio with Raji cells. (FIG. 25M) The percentage of viable Raji cells remaining after 24 hours was analyzed using FACS. (FIG. 25N) Expression of Perforin and Granzyme B was assessed using FACS in sorted CD19 CAR-T cells following co-culture with Raji cells. […]
# Pmel CD8+ T cells [3] = assay: Re-stimulation with gp100 and FACS cytokine analysis; type: cell-based, mouse; details: 0.5 mM GYY4137 3 days, re-stimulated with gp100
# Source text: The impact of H2S on T cell effector function was next determined. Pmel CD8+ T cells were activated and expanded with standard culture conditions or with the addition of the H2S donor and subsequently re-stimulated with gp100 cognate antigen (FIG. 14E). […] Given the importance of protein translation in maintaining a robust anti-tumor response and the repression of T cell translation that occurs in the TME (Riesenberg B. P., et al., 2022, bioRxiv, 2022.01.31.478547; Marchingo J. M., et al., 2022, Cell Mol Immunol., 19(3):303-315), it was determined if H2S influences protein translation.
# human CD19 CAR-T cells = details: 3 days IL2 +/− 0.5 mM GYY4137
# Procedure: Quantification of oxygen consumption rate (OCR), spare respiratory capacity (SRC), maximal respiration, and basal respiration (n=10 experimental replicates representative of 3 separate experiments). […] Shown is the quantification of mean oxygen consumption rate (OCR), spare respiratory capacity (SRC), maximal respiration, and basal respiration. Data shown represent the mean±SEM and were analyzed by two-sided Student's t-test or one-way ANOVA. ns, p-value >0.05; p-value *≤0.05; **≤0.01; ***≤0.001; ****≤0.0001.
# as §1
# [4] = test system: TILs isolated from B16-F10 tumors; details: expanded +/− GYY4137
# Procedure: To obtain tumor-infiltrating T cells (TILs) from subcutaneously established solid B16-F10 melanoma-bearing mice, tumors were excised, chopped finely using tweezers and scissors, and then digested with 2 mg/ml collagenase type IV (Stemcell Technologies, Vancouver, BC) for 45 min. The tumors were filtered through […] (BD Biosciences, San Jose, CA). The cell suspension was washed in culture medium twice by centrifugation at 1500 rpm for 10 min at 4° C. After the second wash, the cells were re-suspended in 6 ml PBS and layered carefully over 3 ml Ficoll-paque (GE Healthcare) followed by centrifugation at 1500 rpm for 30 min at room temperature. The enriched TILs obtained at the interface as a thin buffy layer were washed with PBS twice and finally re-suspended in FACS staining buffer for further staining procedures.
# Pmel T cells [5] = details: H2S treated vs control
# Procedure: Cells were treated+/−H2S for 3 days of activation followed by 3 days of expansion. For analysis of differentially reactive cysteine residues, the sample preparation and analysis were as described by Gottlieb et al. with minor modifications.72 Cells were lysed in freshly made 9 M urea, 50 mM Tris pH 8 buffer with 100 units/mL Universal Nuclease (Thermo Fisher, Pierce cat #88702). To label free thiols, lysis buffer was supplemented with either 55 mM of stable isotope labeled light (I12C2ONH4) or heavy (I13CD213CONH2) iodoacetamide (Sigma, cat #721328) for control or H2S treated cells, respectively. Equal amounts of heavy or light labeled proteins from 3 biological replicates were combined and reducible thiols were reduced with 70 mM dithiothreitol for 45 min at 25° C. […] Two μg aliquots of peptides from each fraction, obtained using ZipTips with 0.6 μL C18 resin (Millipore, Burlington, MA cat #ZTC18S096), were analyzed by LC-MS/MS on an Easy-nLC 1200 coupled to a Orbitrap Fusion Lumos MS (Thermo Scientific, Waltham, MA). […] Ions were detected in the orbitrap. […]
# To control for changes in protein expression, an aliquot of each uncombined, labeled protein sample was analyzed using a label free proteomic approach (MaxQuant LFQ). Proteins were digested as above, and peptides were analyzed using an U3000 nano LC system coupled to an Orbitrap Elite MS (Thermo Scientific). […]
# Pmel CD8+ T cells [6] = details: 3 days gp100 and IL2 +/− 0.5 mM GYY4137
# Procedure: Different metabolites' intracellular levels were determined by performing comprehensive hydrophilic metabolites analysis using LC/MS platform (Metabolomics Core Facility, Northwestern University). Data were then analyzed using MetaboAnalyst software. Samples were loaded equivalently across the platform and normalized to Bradford values before statistical analysis.
# human PBMCs = details: vehicle control or 0.5 mM GYY4137
# Procedure: (FIG. 21A) Levels of intracellular glutathione assessed using FACS by employing ThiolTracker Violet dye in control CD19 CAR-T cells or CAR-T cells overexpressing Cbs (CbstdCD19-CAR-T) (n=3). (FIG. 21B) 12 hour Thapsigargin (700 nM) treatment was used to induce ER stress in WT T cells, Cbs-KO T cells, and Cbs-KO T cells+H2S. Levels of phosphorylated PERK were assessed by FACS (n=3). (FIG. 21C) Pmel T cells were treated with either Thapsigargin (700 nM) or Monensin (1 mM) for 12 hours, followed by staining for phosphorylated PERK (p-PERK) and GM130 to assess ER stress and Golgi stress, respectively (n=4). (FIG. 21D) Activated Pmel T cells were treated for 12 hours with either vehicle control or 1 mM Monensin (“+Golgi stress”) before being stained for giantin to assess Golgi dispersion. […] (FIG. 21E) Representative confocal microscopy images of mitochondria (Tom20) and Golgi (giantin) in human PBMCs treated with vehicle control or 0.5 mM GYY4137.
# Alexa Fluor 488 (anti-Giantin) and Alexa Fluor 647 (anti-TOMM20) fluorescence were imaged in a Zeiss LSM 880 NLO inverted laser scanning confocal microscope (Thornwood, NY) using a 63× 1.4 N.A. plan-apochromat oil immersion lens. Alexa Fluor 488 and Alexa Fluor 647 were excited at 488 nm and 633 nm, respectively. Emitted light was detected with an Airyscan super-resolution detector at BP 495-550 nm for Giantin label and LP 654 nm for TOMM20. […]
# Sirt1 = details: H2S-treated vs control T cells
# Procedure: (FIG. 18C) NAD+ and nicotinamide quantification from metabolomics dataset. (FIG. 18D) SIRT1 deacetylase activity in activated Pmel T cells (means of normalized OD values). (FIGS. 18E and 18F) Pmel T cells were activated with gp100 for 3 days in the presence of vehicle, GYY4137 (0.5 mM), or GYY4137+sirt1 inhibitor EX527 (10 μM). (FIG. 18E) Nuclear and cytoplasmic protein fractions were isolated and western blot analysis was performed to determine relative expression of nuclear and cytoplasmic Foxo1 (n=3). (FIG. 18F) Expression of CD62L and CD44 analyzed by FACS (n=3). (FIG. 18G) Splenocytes from wildtype and Cbs-knockout mice+/−GYY4137 activated with anti-CD3 and anti-CD28 antibodies followed by intranuclear staining for Foxo1. (FIG. 18H) Pmel T cells activated and expanded for metabolic flux analysis. Quantification of oxygen consumption rate (OCR), spare respiratory capacity (SRC), maximal respiration, and basal respiration (n=10 experimental replicates representative of 3 separate experiments). (FIG. 18I) Pmel T cells activated and expanded to day 5 for characterization of mitochondria using FACS, quantified by MFI values for mitoFM Deep Red, TMRM, and mitoSOX dyes (n=4). […] Shown is the quantification of mean oxygen consumption rate (OCR), spare respiratory capacity (SRC), maximal respiration, and basal respiration.
smiles,measurement,setting,value
C1COCCN1.COc1ccc(P(=S)(S)N2CCOCC2)cc1 (stereo not drawn) [GYY4137],duration of sustained H2S release,[1],up to 7 days
same,basal respiration,Pmel T cells [2],did not alter basal respiration
same,maximal respiration,Pmel T cells [2],significant increase
same,spare respiratory capacity (SRC),Pmel T cells [2],significant increase
same,effector functions (cytokines by FACS) of Golgi^lo T cells,Golgi^lo T cells,partial restoration of their effector functions
same,Granzyme B and CD107 expression,Pmel CD8+ T cells [3],increased levels of cytolytic molecule Granzyme B and CD107 expression
same,secretion of effector cytokines TNF-α and IFN-γ,Pmel CD8+ T cells [3],"enhanced secretion of effector cytokines TNF-α, and IFN-γ"
same,SRC,human CD19 CAR-T cells,significant increase
same,maximal respiration,human CD19 CAR-T cells,significant increase
same,GM130 expression,[4],significantly higher GM130 expression
same,PD1 expression,[4],lower PD1 expression
same,"free thiols / abundance of ER proteins Prdx4, Ero1, MANF1, Rp17a",Pmel T cells [5],enhanced abundance or an increase in the extent of free thiols
same,free thiols at cysteine 54 in Prdx4,Pmel T cells [5],increase in free thiols at cysteine 54 in Prdx4
same,levels of NAD+,Pmel CD8+ T cells [6],increased levels of NAD+
same,levels of nicotinamide,Pmel CD8+ T cells [6],decreased levels of nicotinamide
same,metabolite profile,Pmel CD8+ T cells [6],distinct profile of metabolites
same,"Golgi organization (giantin, confocal)",human PBMCs,more compact Golgi organization
same,Sirt1 activity,Sirt1,increased Sirt1 activity

# — patent US20250170239A1, “CELLULAR REPROGRAMMING BY TARGETING THE GOLGI APPARATUS” (MUSC Foundation for Research Development, priority 2023, published 2025)
